GI50 and TGI data for nine compounds are collected here from PubChem BioAssay (NCI).

Molecules are shown by their SMILES. Several values for one entry are separate records, joined by “and”; a condition that tells them apart may be missing. Equal values may be shown once.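 Following 48 hours of exposure in 96-well plates, responses at five concentrations were used to interpolate endpoints linearly. GI50 is the concentration that inhibits growth by half. The concentration for full growth arrest is given as TGI.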 Bounds are passed on as bounds.

Some test systems named below: HS 578T breast; SF-539 CNS; UACC-62 melanoma; IGROV1 ovarian; OVCAR-4 ovarian; KM12 colon; UACC-257 melanoma; SR leukemia; HCC-2998 colon; OVCAR-8 ovarian.
Common to all, as to experiment: inhibition of tumour cell growth, NCI panel, 48 h

For `CNc1cc(-c2cccc(OC(F)(F)F)c2)nc2ccc(N3CCCC3)cc12`, the GI50 with HS 578T breast is 1.87 µM; with SF-539 CNS, 1.72 µM and 1.88 µM and 1.78 µM; in the experiment on UACC-62 melanoma it was 1.75 µM and 1.76 µM and 1.7 µM; in the experiment with IGROV1 ovarian, 1.57 µM and 1.74 µM and 1.72 µM; with OVCAR-4 ovarian, 1.63 µM and 1.69 µM and 1.75 µM; with KM12 colon, 1.81 µM and 1.76 µM and 1.89 µM. The GI50 with UACC-257 melanoma is 1.89 µM and 1.77 µM and 1.86 µM; with SR leukemia, 0.31 µM and 1.56 µM; in the experiment with HCC-2998 colon it was 1.93 µM and 1.94 µM and 1.75 µM; with OVCAR-8 ovarian, 1.8 µM and 1.81 µM and 1.82 µM. For the same compound, the TGI was 3.95 µM with HS 578T breast; 3.19 µM and 3.45 µM and 3.22 µM in the experiment with SF-539 CNS; 3.36 µM and 3.16 µM and 3.18 µM in the experiment with UACC-62 melanoma; 3.08 µM and 3.39 µM and 3.25 µM in the experiment on IGROV1 ovarian; 3.33 µM and 3.19 µM and 3.36 µM with OVCAR-4 ovarian; 3.4 µM and 3.35 µM and 3.51 µM in the experiment with KM12 colon. Moreover, the TGI in the experiment with UACC-257 melanoma was 3.37 µM and 3.16 µM and 3.34 µM; in the experiment on SR leukemia it was 1.78 µM and 4.22 µM; in the experiment with HCC-2998 colon, 3.5 µM and 3.48 µM and 3.23 µM; in the experiment on OVCAR-8 ovarian it was 3.5 µM and 3.39 µM and 3.55 µM.

As for `Oc1[nH]c2ccccc2c1C=Nc1ccc(-n2cncn2)cc1`, the GI50 is above 25 µM in the experiment with HS 578T breast; above 25 µM in the experiment with SF-539 CNS; 14.6 µM in the experiment with UACC-62 melanoma; above 25 µM in the experiment with IGROV1 ovarian; above 18.9 µM with OVCAR-4 ovarian; 0.991 µM in the experiment on KM12 colon. Further, the GI50 is above 25 µM in the experiment with UACC-257 melanoma, 19 µM in the experiment on SR leukemia, above 25 µM with HCC-2998 colon and 13.9 µM in the experiment on OVCAR-8 ovarian. Further, the TGI in the experiment on HS 578T breast, in the experiment on SF-539 CNS, in the experiment on UACC-62 melanoma, in the experiment on IGROV1 ovarian, in the experiment with OVCAR-4 ovarian and in the experiment with KM12 colon was above 25 µM in each case. Besides, the TGI in the experiment with UACC-257 melanoma, with SR leukemia, in the experiment with HCC-2998 colon and in the experiment on OVCAR-8 ovarian was above 25 µM throughout.

Regarding `COc1cc(-c2ccc[nH]2)[nH]c1/C=C1\N=C(C)C(CC(=O)OCC(C)(C)C)=C1C`, the GI50 with HS 578T breast is 0.256 µM; in the experiment with SF-539 CNS it was 0.357 µM; with UACC-62 melanoma, 0.211 µM; in the experiment on OVCAR-4 ovarian it was 0.331 µM; with KM12 colon it was 0.267 µM; with UACC-257 melanoma, 0.339 µM. For the same compound, the figures for the GI50 in the experiment on SR leukemia, in the experiment on HCC-2998 colon and in the experiment on OVCAR-8 ovarian were 0.122 µM, 0.368 µM and 0.321 µM, respectively. In addition, the TGI in the experiment with HS 578T breast turned out to be 1.91 µM; with SF-539 CNS, 1.6 µM; in the experiment with UACC-62 melanoma it was 0.555 µM; in the experiment with OVCAR-4 ovarian, 2.06 µM; in the experiment with KM12 colon it was 1.76 µM; with UACC-257 melanoma, 1.52 µM. In addition, the TGI stood at 0.617 µM with SR leukemia, 1.75 µM in the experiment with HCC-2998 colon and 1.44 µM in the experiment with OVCAR-8 ovarian.

Take `CN(C)c1ccc2[nH]c3c(C(N)=O)cc(=O)c(=O)c=3oc2c1`: the GI50 was 0.973 µM with HS 578T breast; 0.428 µM in the experiment on SF-539 CNS; 1.74 µM in the experiment on UACC-62 melanoma; 1.95 µM in the experiment with IGROV1 ovarian; 1.67 µM with OVCAR-4 ovarian; 3.33 µM with KM12 colon. The GI50 in the experiment with UACC-257 melanoma is 1.77 µM; in the experiment with SR leukemia, 0.942 µM; with HCC-2998 colon, 4.9 µM; with OVCAR-8 ovarian, 1.05 µM. Also, the TGI was 8.31 µM with HS 578T breast; 4.43 µM in the experiment on SF-539 CNS; 5.32 µM in the experiment with UACC-62 melanoma; 14.2 µM in the experiment on IGROV1 ovarian; 6.42 µM with OVCAR-4 ovarian; above 100 µM with KM12 colon. For the same compound, the TGI was 6.18 µM with UACC-257 melanoma, 8.49 µM in the experiment with SR leukemia, above 100 µM in the experiment on HCC-2998 colon and above 100 µM in the experiment on OVCAR-8 ovarian.

As for `COc1ccc(/C=C/c2ccnc3ccccc23)cc1OC`, the TGI came out at 81.6 µM in the experiment on HS 578T breast; 30 µM in the experiment with SF-539 CNS; 29.4 µM with UACC-62 melanoma; 28.9 µM with IGROV1 ovarian; 24.8 µM with OVCAR-4 ovarian; 30.8 µM in the experiment on KM12 colon. The TGI in the experiment with UACC-257 melanoma was 37.6 µM; with SR leukemia, 54.2 µM; in the experiment on HCC-2998 colon, above 100 µM.

Consider `COc1ccc2c(c1)/C(=N/OC(C)=O)c1c-2c(OC)nc2ccccc12`, for which the GI50 in the experiment on HS 578T breast is 48.1 µM; in the experiment on SF-539 CNS, 72.9 µM; in the experiment on UACC-62 melanoma, above 100 µM; with OVCAR-4 ovarian, 58.3 µM; with KM12 colon it was above 100 µM; in the experiment on UACC-257 melanoma, above 100 µM. Besides, the values for the GI50 in the experiment on SR leukemia, with HCC-2998 colon and in the experiment with OVCAR-8 ovarian were 21.6 µM, above 100 µM and above 100 µM, respectively. Besides, the TGI in the experiment on HS 578T breast, in the experiment with SF-539 CNS, in the experiment on UACC-62 melanoma, in the experiment on OVCAR-4 ovarian, in the experiment with KM12 colon and with UACC-257 melanoma was above 100 µM each time. Moreover, the TGI in the experiment with SR leukemia, in the experiment with HCC-2998 colon and in the experiment on OVCAR-8 ovarian was above 100 µM in each case.

As to `COC(=O)c1cc(-c2ccc(S(C)(=O)=O)cc2)[nH]c1N/N=C/c1c(Cl)cccc1Cl`, the GI50 with HS 578T breast is 0.318 µM; in the experiment on SF-539 CNS, 0.496 µM; in the experiment with UACC-62 melanoma, 0.391 µM; in the experiment with IGROV1 ovarian, 0.482 µM; in the experiment with OVCAR-4 ovarian it was 1.7 µM; in the experiment on KM12 colon, 0.386 µM. For the same compound, the GI50 was 2.82 µM in the experiment on UACC-257 melanoma, 0.987 µM in the experiment with HCC-2998 colon and 1.27 µM in the experiment with OVCAR-8 ovarian. For the same compound, the TGI with HS 578T breast is 3.45 µM; in the experiment on SF-539 CNS, 4.79 µM; in the experiment with UACC-62 melanoma, above 47.9 µM; with IGROV1 ovarian it was 67.3 µM; in the experiment on OVCAR-4 ovarian, above 100 µM; in the experiment with KM12 colon, 10 µM. The TGI with UACC-257 melanoma is above 100 µM; in the experiment with SR leukemia it was above 100 µM; in the experiment on HCC-2998 colon, 19.8 µM; in the experiment on OVCAR-8 ovarian, 98.1 µM.

For `COc1ccc2c(c1)C(=O)c1c-2n(CCCN(C)C)c(=O)c2cc([N+](=O)[O-])ccc12`, the GI50 with HS 578T breast was 3.04 µM; with SF-539 CNS, below 0.01 µM; in the experiment on UACC-62 melanoma, below 0.01 µM; in the experiment on IGROV1 ovarian, below 0.01 µM; in the experiment on OVCAR-4 ovarian it was 0.0515 µM; with KM12 colon it was 0.025 µM. Besides, the GI50 is 0.227 µM with UACC-257 melanoma, below 0.01 µM with SR leukemia, 0.0131 µM with HCC-2998 colon and below 0.011 µM with OVCAR-8 ovarian. The TGI is 21.3 µM with HS 578T breast; below 0.01 µM in the experiment on SF-539 CNS; below 0.01 µM in the experiment with UACC-62 melanoma; 13.6 µM with IGROV1 ovarian; 9.37 µM with OVCAR-4 ovarian; 0.556 µM in the experiment with KM12 colon. Further, the TGI in the experiment on UACC-257 melanoma was found to be 29.4 µM; in the experiment on HCC-2998 colon, 0.255 µM; with OVCAR-8 ovarian, 3.75 µM.

Take `CC1(C)C(=O)/C=C\C(=O)C(C)(C)C(=O)/C=C\C(=O)C(C)(C)C2=CC=C(O2)C(C)(C)C(=O)/C=C\C1=O`: the TGI is 50 µM in the experiment with HS 578T breast; 17.7 µM in the experiment with SF-539 CNS; 15.7 µM in the experiment on UACC-62 melanoma; 24.9 µM in the experiment on IGROV1 ovarian; 14.8 µM in the experiment with OVCAR-4 ovarian; 19.8 µM in the experiment on KM12 colon. Further, the TGI worked out at 16.6 µM in the experiment on UACC-257 melanoma, 4.05 µM with SR leukemia, 24.1 µM in the experiment on HCC-2998 colon and 11.6 µM with OVCAR-8 ovarian.
